{"source": "patent US10189795B2", "about": "“Aryl amine substituted quinoxaline used as anticancer drugs” (priority 2014, dated 2019)", "assay_type_in_all_cases": "cell-based", "key": {"CIP2A, p-Akt": {"test_system": "CIP2A, p-Akt", "test": "western blot of CIP2A and p-Akt in HCC cells", "settings": "dose- and time-dependent", "description": "Bar, mean; error bars, S.D. (n=3). […] Bar, mean; error bars, S.D. (n=3). […] Bar, mean; error bars, S.D. (n=3). […] Bar, mean; error bars, S.D. (n=3). […] Bar, mean; error bars, S.D. (n=3)\nCells were treated with […] for a time period. Cell lysates were analyzed by western blot analysis.\nThe present invention next investigated the molecular mechanism associated with TD-52, with particular focus on the cancerous inhibitor of protein phosphatase 2A (CIP2A)-protein phosphatase 2A (PP2A)-p-Akt signaling pathway. […] Furthermore, PP2A activity was enhanced after HCC cells treated with […]-52 for 24 hr (FIG. 2C), while the expression level of PP2A-related subunits, PP2A-A, PP2A-B5 and PP2A-C subunits, were not affected."}, "Hep3B": {"test_system": "Hep3B", "test": "MTT cell viability, Hep3B", "settings": "Homo sapiens, 48 h", "description": "(§1) The Sk-Hep1, PLC/PRF/5 (PLC) and Hep3B cell lines were obtained from American Type Culture Collection (ATCC; Manassas, Va., USA). The Huh-7 HCC cell line was obtained from the Health Science Research Resources Bank (HSRRB; Osaka, Japan; JCRB0403). Cells were maintained in DMEM supplemented with 10% FBS in a 37° C. humidified incubator in an atmosphere of 5% CO^2 in air. Other cell lines, including non-small cell lung cancer cells e.g. H358, H460 and A549 and human squamous cell carcinoma cells e.g. NCI-1703, H2170, H520, SW900 and NCI—H226 all obtained from American Type Culture Collection (Manassas, Va.) were also provided for the assays describes below.\n(§2) The present invention compared the antitumor activities of an erlotinib derivative of the present invention, TD-52, and erlotinib on HCC cells. The present invention used MTT assay to evaluate cell viability after exposure to TD-52 or erlotinib for 48 h. […] To further evaluate the cell apoptosis induced by the treatments, all four cell lines were treated with TD-52 and erlotinib at the indicated concentration for 24 h and the percentages of sub-G1 cells were determined by flow cytometry (FIG. 1B)."}, "HA22T": {"test_system": "HA22T", "test": "MTT cell viability, HA22T", "settings": "Homo sapiens, 48 h", "description": "as §2"}, "Sk-Hep1": {"test_system": "Sk-Hep1", "test": "MTT cell viability, Sk-Hep1", "settings": "Homo sapiens, 48 h", "description": "as §1, §2"}, "SW900": {"test_system": "SW900", "test": "cell viability of SW900 cells, 1 and 10 uM", "settings": "Homo sapiens"}, "PP2A": {"test_system": "PP2A", "test": "PP2A phosphatase activity (malachite green-phosphate assay in cell lysate)", "description": "The protein phosphatase activity in each cell lysate was determined by measuring the generation of free phosphate from threonine phosphopeptide using the malachite green-phosphate complex assay as described by the manufacturer (Upstate Biotechnology, Lake Placid, N.Y., USA). In brief, HCC cell lysates were first prepared in a low-detergent lysis buffer. […] After incubation for 10 min at 30° C., the malachite dye was added and free phosphate was measured by optical density at 650 nm. In order to avoid variation resulting from differences in the amount of immunoprecipitation protein between samples, the phosphatase activities were normalized to the amounts of PP2A immunoprecipitated, which were detected and quantified by immunoblot analysis for each treatment group."}, "H520": {"test_system": "H520", "test": "cell viability of H520 cells, 1 and 10 uM", "settings": "Homo sapiens, NCI-H520"}, "[1]": {"test_system": "HCC cells (HA22T, Hep3B, PLC5, Sk-Hep1)", "test": "annexin-V/PI double-staining assay of apoptotic and necrotic cell death", "settings": "2 μM or higher doses, 48 h, four HCC cell lines", "description": "The numbers of apoptotic cells after treatment with DMSO, sorafenib or the erlotinib derivatives of the present invention were assessed by flow cytometry (sub-G1). Annexin-V/propidium iodidie (PI) double-staining assay was used to determine numbers of both apoptotic and necrotic cells. For above tow assays, HCC cells were harvested after the erlotinib derivatives of the present invention treatment and incubated with PI alone for sub-G1 assay and in combination with annexin-V—FITC. Analysis of cell composition was performed by flow cytometry. The erlotinib derivatives of the present invention-induced apoptotic cell death was assessed by western blot analysis of activated caspases and cleaved PARP, and cell death enzyme-linked immunosorbent assay (ELISA) for cytoplasmic histone-associated DNA fragments (Roche, Indianapolis, Ind., USA). The effect of co-treatment with the erlotinib derivatives of the present invention and z-VAD-fmk, the caspase inhibitor, were assessed by western blot analysis and flow cytometry.\nTo better characterize the antitumor properties of TD-52, annexin-V/propidium iodide (PI) double-staining assay, western blot analysis, cell cycle analysis and DNA fragmentation assay were performed (FIGS. 1C-1E). At dose increase, the proportion of apoptosis and necrosis of cancer cell ware analyzed by annexin-V—FITC/PI double-staining assay. […]"}, "NCI-1703": {"test_system": "NCI-1703", "test": "cell viability of NCI-1703 cells, 1 and 10 uM of each erlotinib derivative, and IC50", "settings": "Homo sapiens"}}}
{"smiles": "C#Cc1cccc(Nc2nc3ccccc3nc2Nc2cccc(C#C)c2)c1", "note": "[TD52, N^2,N^3-bis(3-ethynylphenyl)quinoxaline-2,3-diamine]", "values": [{"measurement": "protein expression of CIP2A and p-Akt", "setting": "CIP2A, p-Akt", "result": "downregulated"}, {"measurement": "IC50", "setting": "Hep3B", "result": 900, "unit": "nM"}, {"measurement": "IC50", "setting": "HA22T", "result": 900, "unit": "nM"}, {"measurement": "IC50", "setting": "Sk-Hep1", "result": 1200, "unit": "nM"}, {"measurement": "viability at 1 µM", "setting": "SW900; 1 uM", "result": "107 ± 13.1", "unit": "%"}, {"measurement": "viability at 10 µM", "setting": "SW900; 10 uM", "result": "77.9 ± 11.3", "unit": "%"}, {"measurement": "minimal concentration for PP2A activation", "setting": "PP2A", "result": "100 to 200", "unit": "nM"}, {"measurement": "PP2A activity in HCC cells", "setting": "PP2A; 1 μL (printed) TD-52, 24 hr", "result": "enhanced"}, {"measurement": "viability at 1 µM", "setting": "H520; 1 uM", "result": "95.8 ± 1.26", "unit": "%"}, {"measurement": "viability at 10 µM", "setting": "H520; 10 uM", "result": "14 ± 0.14", "unit": "%"}, {"measurement": "extents of cancer cell death, included apoptotic and necrotic death", "setting": "[1]", "result": "≥ 50", "unit": "%"}, {"measurement": "viability at 1 µM", "setting": "NCI-1703; 1 uM", "result": "84.7 ± 2.5", "unit": "%"}, {"measurement": "viability at 10 µM", "setting": "NCI-1703; 10 uM", "result": "10.1 ± 0.1", "unit": "%"}, {"measurement": "IC50", "setting": "NCI-1703; cell viability", "result": 3800, "unit": "nM"}]}
